Reference: patent US20220315598A1, “Oxygen-containing Heterocyclic Compound, Preparation Method Therefor and Use Thereof” (SHANGHAI YINGLI PHARMACEUTICAL CO., LTD, priority 2019, published 2022)

Tests used:
CYP1A2 = molecular target: T1, CYP1A2 (Homo sapiens, UniProt P05177); test: Inhibition of metabolic enzymes in vitro, human liver microsomes, CYP1A2; assay type: in vitro ADME; conditions: substrate Phenacetin
T1 construct: human liver microsomes and CYP enzyme-specific substrates were used; from tissue; host or cells: human liver microsomes
T1 sequence (P05177 1-516): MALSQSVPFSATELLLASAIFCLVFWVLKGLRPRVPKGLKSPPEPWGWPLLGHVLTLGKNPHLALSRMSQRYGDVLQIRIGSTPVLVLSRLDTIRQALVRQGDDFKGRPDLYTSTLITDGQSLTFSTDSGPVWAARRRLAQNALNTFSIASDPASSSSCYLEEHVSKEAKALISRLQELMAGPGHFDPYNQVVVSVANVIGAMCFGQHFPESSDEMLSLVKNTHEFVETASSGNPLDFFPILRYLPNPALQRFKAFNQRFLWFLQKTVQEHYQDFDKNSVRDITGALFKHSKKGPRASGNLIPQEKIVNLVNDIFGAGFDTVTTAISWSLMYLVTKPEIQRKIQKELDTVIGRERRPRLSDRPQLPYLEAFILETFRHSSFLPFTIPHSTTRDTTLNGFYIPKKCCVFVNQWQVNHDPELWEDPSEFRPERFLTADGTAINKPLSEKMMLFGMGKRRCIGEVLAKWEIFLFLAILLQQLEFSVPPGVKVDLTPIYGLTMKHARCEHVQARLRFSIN
Method: (§1) Test purpose: In this test, human liver microsomes and CYP enzyme-specific substrates were used to test the effects of different concentrations of compounds to be tested on metabolic rates of enzyme-specific substrates, so as to determine inhibitory effects of these compounds on CYP enzymes in human liver microsomes.
(§2) 1. preparing […] potassium phosphate buffer (pH 7.4);
(§3) 2. preparing stock solutions of compounds to be tested (10 mM), NADPH solutions (8 mM, which was 4 times the final concentration), positive compound stock solutions, substrate stock solutions and human liver microsome solutions (see the table below);
(§4) 3. preparing solutions of compounds to be tested: dissolving 8 μL of 10 mM stock solution of compounds to be tested in 12 μL of acetonitrile, and then using a mixed solution of 40% DMSO and 60% acetonitrile to perform a 1:3 gradient dilution as follows (wherein the concentration was 400 times the final concentration): 4 mM, 1.333 mM, 0.444 mM, 0.148 mM, 0.0494 mM, 0.0165 mM, 0.00549 mM and 0 mM.
(§5) 4. preparing positive control inhibitor solutions: dissolving 8 μL of positive control inhibitor stock solutions in 12 μL of acetonitrile, and then using a mixed solution of 40% DMSO and 60% acetonitrile to perform a 1:3 gradient dilution as follows (wherein the concentration was 400 times the final concentration, which was described in the table below); […]

CYP3A4 = CYP3A4 (Homo sapiens, UniProt P08684); test: Inhibition of metabolic enzymes in vitro, human liver microsomes, CYP3A4
Method: as §1, §2, §3
4. preparing positive control inhibitor solutions: dissolving 8 μL of positive control inhibitor stock solutions in 12 μL of acetonitrile, and then using a mixed solution of 40% DMSO and 60% acetonitrile to perform a 1:3 gradient dilution as follows (wherein the concentration was 400 times the final concentration, which was described in the table below);
6. preparing mixed solutions of positive control compounds and human liver microsomes: adding 200 μL of 0.2 mg/mL human liver microsomes to a 96-well plate, and adding 1 μL of diluted solutions of positive control compounds;
7. dispensing 30 μL of mixed solutions of the compounds and human liver microsomes to a 96-well plate, and then adding […] substrate solutions: adding […] preheated NADPH solutions to a preheated reaction plate and mixing evenly to start the reaction;
8. incubating the reaction plate at 37° C.; 3A4 was reacted for 5 minutes; 1A2, 2C9 and 2D6 were reacted for 10 minutes; 2C19 was reacted for 45 minutes;
9, after completion of the addition, adding 120 μL of acetonitrile containing internal standard to terminate the reaction: after terminating the reaction, shaking the sample on a shaker at 600 rpm/min for 10 minutes and centrifuging same at 3220×g for 15 minutes; after centrifugation, taking out 50 μL of supernatant and mixing same with 50 μL of water for analysis by LC-MS/MS.
According to the following equation, the data was plotted and fitted using a dose-response model in GraphPad Prism software to calculate IC50.
Y=Bottom+(Top−Bottom)/(1+10^((Log IC50−X)×HillSlope))
X represents the logarithm concentration of the inhibitor, and Y represents the relative activity of the enzyme at a certain inhibitor concentration (relative to the condition without inhibitor).

CYP2C19 = molecular target: T2, CYP2C19 (Homo sapiens, UniProt P33261); test: Inhibition of metabolic enzymes in vitro, human liver microsomes, CYP2C19; assay type: in vitro ADME; conditions: substrate S-Mephenytoin
T2 construct: human liver microsomes and CYP enzyme-specific substrates were used; from tissue; host or cells: human liver microsomes
Method: as §1, §2, §3, §4, §5

CYP2C9 = molecular target: T3, CYP2C9 (Homo sapiens, UniProt P11712); test: Inhibition of metabolic enzymes in vitro, human liver microsomes, CYP2C9; assay type: in vitro ADME; conditions: substrate Diclofenac
T3 construct: human liver microsomes and CYP enzyme-specific substrates were used; from tissue; host or cells: human liver microsomes
Method: as §1, §2, §3, §4, §5

CYP2D6 = CYP2D6 (Homo sapiens, UniProt P10635); test: Inhibition of metabolic enzymes in vitro, human liver microsomes, CYP2D6
Method: as §1, §2, §3, §4, §5

[1] = IC50 (μM) CYP3A4 (Midazolam), substrate Midazolam
[2] = IC50 (μM) CYP3A4 (Testosterone), substrate Testosterone

CYP3A4, sequence (P08684 whole entry): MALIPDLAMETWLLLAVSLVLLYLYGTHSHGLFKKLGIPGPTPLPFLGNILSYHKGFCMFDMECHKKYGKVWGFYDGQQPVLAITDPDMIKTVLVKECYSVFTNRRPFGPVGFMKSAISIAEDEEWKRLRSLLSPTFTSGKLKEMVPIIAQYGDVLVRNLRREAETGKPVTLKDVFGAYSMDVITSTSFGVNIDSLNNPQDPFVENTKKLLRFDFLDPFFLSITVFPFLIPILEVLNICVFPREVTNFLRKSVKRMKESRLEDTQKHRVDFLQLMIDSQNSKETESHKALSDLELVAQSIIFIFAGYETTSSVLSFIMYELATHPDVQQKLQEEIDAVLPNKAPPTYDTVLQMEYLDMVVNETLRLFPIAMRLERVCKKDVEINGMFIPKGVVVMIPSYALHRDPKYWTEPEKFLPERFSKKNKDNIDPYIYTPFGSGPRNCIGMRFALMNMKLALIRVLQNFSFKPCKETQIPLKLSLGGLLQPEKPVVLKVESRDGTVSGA
CYP2D6, sequence (P10635 whole entry): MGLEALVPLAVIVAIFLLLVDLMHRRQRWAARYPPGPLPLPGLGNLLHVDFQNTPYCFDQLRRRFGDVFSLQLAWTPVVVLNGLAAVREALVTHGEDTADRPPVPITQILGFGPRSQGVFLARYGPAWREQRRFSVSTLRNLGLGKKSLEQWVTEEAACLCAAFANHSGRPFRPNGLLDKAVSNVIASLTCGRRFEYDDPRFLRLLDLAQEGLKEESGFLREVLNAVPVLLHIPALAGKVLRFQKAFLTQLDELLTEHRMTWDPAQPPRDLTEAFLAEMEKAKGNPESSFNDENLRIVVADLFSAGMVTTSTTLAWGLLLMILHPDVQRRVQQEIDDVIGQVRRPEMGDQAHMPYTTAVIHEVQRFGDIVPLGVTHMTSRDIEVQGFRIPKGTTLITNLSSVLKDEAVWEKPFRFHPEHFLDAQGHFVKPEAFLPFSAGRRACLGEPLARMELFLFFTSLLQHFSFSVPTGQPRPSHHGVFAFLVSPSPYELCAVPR
T2 sequence (P33261 whole entry): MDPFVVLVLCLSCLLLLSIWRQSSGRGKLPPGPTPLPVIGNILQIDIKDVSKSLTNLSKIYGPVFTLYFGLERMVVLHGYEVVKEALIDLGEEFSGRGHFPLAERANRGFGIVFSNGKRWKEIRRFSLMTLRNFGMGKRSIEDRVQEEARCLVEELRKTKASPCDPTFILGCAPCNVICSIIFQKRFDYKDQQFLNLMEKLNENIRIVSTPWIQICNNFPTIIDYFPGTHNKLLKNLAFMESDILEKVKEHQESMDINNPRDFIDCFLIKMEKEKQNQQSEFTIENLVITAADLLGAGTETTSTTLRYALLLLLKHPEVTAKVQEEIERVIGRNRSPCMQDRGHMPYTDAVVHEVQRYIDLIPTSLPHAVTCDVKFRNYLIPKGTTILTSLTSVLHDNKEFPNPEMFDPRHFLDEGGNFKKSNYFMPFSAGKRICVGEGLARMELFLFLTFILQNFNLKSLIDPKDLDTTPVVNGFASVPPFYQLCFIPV
T3 sequence (P11712 whole entry): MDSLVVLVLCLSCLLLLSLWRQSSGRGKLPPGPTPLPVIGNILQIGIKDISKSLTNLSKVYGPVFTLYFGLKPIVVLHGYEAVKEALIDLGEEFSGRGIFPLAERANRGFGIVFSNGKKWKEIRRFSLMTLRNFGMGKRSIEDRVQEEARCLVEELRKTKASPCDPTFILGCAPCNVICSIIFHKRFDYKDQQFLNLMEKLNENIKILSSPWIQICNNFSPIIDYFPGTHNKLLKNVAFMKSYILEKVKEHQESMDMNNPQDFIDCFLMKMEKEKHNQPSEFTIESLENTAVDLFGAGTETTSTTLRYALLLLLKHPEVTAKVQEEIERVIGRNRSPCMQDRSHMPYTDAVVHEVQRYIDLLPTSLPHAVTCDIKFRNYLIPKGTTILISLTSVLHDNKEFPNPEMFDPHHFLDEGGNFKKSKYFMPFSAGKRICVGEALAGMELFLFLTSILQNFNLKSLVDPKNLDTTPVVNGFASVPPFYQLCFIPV

C=CC(=O)N1CCN(c2nc(=O)n(-c3c(C)ccnc3C(C)C)c3nc(-c4c(O)cccc4F)c(F)cc23)[C@@H](C)C1 (atropisomer, axis not shown) [AMG-510]
IC50 (CYP1A2): > 10 µM | IC50 (CYP3A4; [1]): 4.46 µM | IC50 (CYP3A4; [2]): > 10 µM | IC50 (CYP2C19): > 10 µM | IC50 (CYP2C9): > 10 µM | IC50 (CYP2D6): > 10 µM

C=C(F)C(=O)N1CCN(c2nc(OC[C@@H]3CCCN3C)nc3c2CCN(c2cccc4cccc(Cl)c24)C3)C[C@@H]1CC#N [MRTX849]
IC50 (CYP1A2): > 10 µM | IC50 (CYP3A4; [1]): 5.92 µM | IC50 (CYP3A4; [2]): 7.85 µM | IC50 (CYP2C19): > 10 µM | IC50 (CYP2C9): 2.29 µM | IC50 (CYP2D6): > 10 µM
